Results taken from patent publication US20260232767A1, “INTERLEUKIN-23 RECEPTOR ANTAGONIST PEPTIDES FOR USE IN THE TREATMENT OF PSORIASIS” (Janssen Pharmaceutica NV, priority 2023, published 2026).

Test system: subjects with moderate-to-severe plaque psoriasis
Test: Hematology and chemistry laboratory values by CTCAE grade
Type: in vivo, human
Conditions: through Week 56
From the text: The proportion of participants who discontinued study intervention due to one or more AEs was low (n=4). All events were singular in nature with no apparent dose-dependent increase (Table 48 and Table 52). The number of participants with abnormal hematology and chemistry laboratory values with CTCAE toxicity grade≥3 were low through the end of the study (Table 43 through Table 46). There was no apparent dose-dependent increase in laboratory abnormality occurrences.

CC(=O)NCCCC[C@@H]1NC(=O)[C@H](Cc2c[nH]c3c(C)cccc23)NC(=O)[C@H]([C@@H](C)O)NC(=O)[C@H](CC(N)=O)NC(=O)[C@@H](NC(C)=O)C(C)(C)SSC(C)(C)[C@@H](C(=O)N[C@@H](Cc2ccc(OCCN)cc2)C(=O)N[C@@H](Cc2ccc3ccccc3c2)C(=O)NC2(C(=O)N[C@@H](CCC(=O)O)C(=O)N[C@@H](CC(N)=O)C(=O)N[C@@H](Cc3cccnc3)C(=O)N(C)CC(N)=O)CCOCC2)NC1=O [IL-23 receptor antagonist peptide, Ac-[Pen]*-N-T-[W(7-Me)]-[Lys(Ac)]-[Pen]*-Phe[4-(2-aminoethoxy)]-[2-Nal]-[THP]-E-N-[3-Pal]-Sarc-NH2 (*[Pen]-[Pen]* formdisulfidebond)]
Sodium (increased): Subjects with Grade 4 (25 mg BID): 0
Total Bilirubin (increased): Subjects with Grade 2 (25 mg BID): 0
Total Bilirubin (increased): Subjects with Grade 3 (25 mg BID): 0
Total Bilirubin (increased): Subjects with Grade 4 (25 mg BID): 0
Triglycerides (increased): Subjects with Grade 3 (25 mg BID): 0
Triglycerides (increased): Subjects with postbaseline maximum toxicity grade >0 (25 mg BID): 8
WBC (×10^9/L) (decreased): subjects with Grade 3 (25 mg BID): 0
WBC (×10^9/L) (decreased): subjects with Grade 4 (25 mg BID): 0
WBC (×10^9/L) (increased): subjects with Grade 1 (25 mg BID): 0
WBC (×10^9/L) (increased): subjects with Grade 2 (25 mg BID): 0
WBC (×10^9/L) (increased): subjects with Grade 3 (25 mg BID): 0
WBC (×10^9/L) (increased): subjects with Grade 4 (25 mg BID): 0
WBC (×10^9/L) (increased): subjects with postbaseline maximum toxicity grade >0 (25 mg BID): 0
Alanine Aminotransferase (increased): Subjects with Grade 1 (25 mg QD): 7
Alanine Aminotransferase (increased): Subjects with Grade 4 (25 mg QD): 0
Alanine Aminotransferase (increased): Subjects with postbaseline maximum toxicity grade >0 (25 mg QD): 9
Albumin (decreased): Subjects with Grade 1 (25 mg QD): 0
Albumin (decreased): Subjects with Grade 2 (25 mg QD): 0
Albumin (decreased): Subjects with Grade 3 (25 mg QD): 0
Albumin (decreased): Subjects with Grade 4 (25 mg QD): 0
Albumin (decreased): Subjects with postbaseline maximum toxicity grade >0 (25 mg QD): 0
Alkaline Phosphatase (increased): Subjects with Grade 2 (25 mg QD): 0
Alkaline Phosphatase (increased): Subjects with Grade 3 (25 mg QD): 0
Alkaline Phosphatase (increased): Subjects with Grade 4 (25 mg QD): 0
Aspartate Aminotransferase (increased): Subjects with Grade 1 (25 mg QD): 5
Aspartate Aminotransferase (increased): Subjects with Grade 3 (25 mg QD): 0
Aspartate Aminotransferase (increased): Subjects with Grade 4 (25 mg QD): 0
Calcium corrected (decreased): Subjects with Grade 2 (25 mg QD): 0
Calcium corrected (decreased): Subjects with Grade 3 (25 mg QD): 0
Calcium corrected (decreased): Subjects with Grade 4 (25 mg QD): 0
Calcium corrected (increased): Subjects with Grade 1 (25 mg QD): 0
Calcium corrected (increased): Subjects with Grade 2 (25 mg QD): 0
Calcium corrected (increased): Subjects with Grade 3 (25 mg QD): 0
Calcium corrected (increased): Subjects with Grade 4 (25 mg QD): 0
Calcium corrected (increased): Subjects with postbaseline maximum toxicity grade >0 (25 mg QD): 0
Cholesterol (increased): Subjects with Grade 2 (25 mg QD): 0
Cholesterol (increased): Subjects with Grade 3 (25 mg QD): 0
Cholesterol (increased): Subjects with Grade 4 (25 mg QD): 0
Creatinine (increased): Subjects with Grade 2 (25 mg QD): 0
Creatinine (increased): Subjects with Grade 3 (25 mg QD): 0
Creatinine (increased): Subjects with Grade 4 (25 mg QD): 0
Gamma Glutamyl Transferase (increased): Subjects with Grade 1 (25 mg QD): 5
Gamma Glutamyl Transferase (increased): Subjects with Grade 2 (25 mg QD): 0
Gamma Glutamyl Transferase (increased): Subjects with Grade 3 (25 mg QD): 0
Gamma Glutamyl Transferase (increased): Subjects with Grade 4 (25 mg QD): 0
Gamma Glutamyl Transferase (increased): Subjects with postbaseline maximum toxicity grade >0 (25 mg QD): 5
Glucose (decreased): Subjects with Grade 2 (25 mg QD): 0
Glucose (decreased): Subjects with Grade 3 (25 mg QD): 0
Glucose (decreased): Subjects with Grade 4 (25 mg QD): 0
Hemoglobin (g/L) (decreased): subjects with Grade 2 (25 mg QD): 0
Hemoglobin (g/L) (decreased): subjects with Grade 3 (25 mg QD): 0
Hemoglobin (g/L) (decreased): subjects with Grade 4 (25 mg QD): 0
Hemoglobin (g/L) (increased): subjects with Grade 2 (25 mg QD): 0
Hemoglobin (g/L) (increased): subjects with Grade 3 (25 mg QD): 0
Hemoglobin (g/L) (increased): subjects with Grade 4 (25 mg QD): 0
Lymphocytes (×10^9/L) (decreased): subjects with Grade 1 (25 mg QD): 0
Lymphocytes (×10^9/L) (decreased): subjects with Grade 2 (25 mg QD): 0
Lymphocytes (×10^9/L) (decreased): subjects with Grade 3 (25 mg QD): 0
Lymphocytes (×10^9/L) (decreased): subjects with Grade 4 (25 mg QD): 0
Lymphocytes (×10^9/L) (decreased): subjects with postbaseline maximum toxicity grade >0 (25 mg QD): 0
Lymphocytes (×10^9/L) (increased): subjects with Grade 1 (25 mg QD): 0
Lymphocytes (×10^9/L) (increased): subjects with Grade 2 (25 mg QD): 0
Lymphocytes (×10^9/L) (increased): subjects with Grade 3 (25 mg QD): 0
Lymphocytes (×10^9/L) (increased): subjects with Grade 4 (25 mg QD): 0
Lymphocytes (×10^9/L) (increased): subjects with postbaseline maximum toxicity grade >0 (25 mg QD): 0
Magnesium (decreased): Subjects with Grade 1 (25 mg QD): 0
Magnesium (decreased): Subjects with Grade 2 (25 mg QD): 0
Magnesium (decreased): Subjects with Grade 3 (25 mg QD): 0
Magnesium (decreased): Subjects with Grade 4 (25 mg QD): 0
Magnesium (decreased): Subjects with postbaseline maximum toxicity grade >0 (25 mg QD): 0
Magnesium (increased): Subjects with Grade 2 (25 mg QD): 0
Magnesium (increased): Subjects with Grade 3 (25 mg QD): 0
Magnesium (increased): Subjects with Grade 4 (25 mg QD): 0
Neutrophils (×10^9/L) (decreased): subjects with Grade 2 (25 mg QD): 0
Neutrophils (×10^9/L) (decreased): subjects with Grade 3 (25 mg QD): 0
Neutrophils (×10^9/L) (decreased): subjects with Grade 4 (25 mg QD): 0
